Source: patent US5545667A, “Methods for treating neoplasms with betaines” (The Clorox Company, priority 1994, dated 1996)
pIC50: −log10 of the molar value. Where a name gives a salt, the structure may show the parent alone. Read-outs that look alike come from different tables or passages of the source.

Columns and labels:
NIH 3T3 cells = test: Cell growth inhibition assay, NIH 3T3; format: cell-based, mouse
Description: (§1) Established cell lines are the system of choice for the prescreening of unknown compounds for antineoplastic activity. The tumor cell line screen works on the following principle. Cancer cells, if provided with enough nutrients, will grow unchecked in vitro, allowing researchers to grow many types of cancer cells outside the body. To perform an assay, standard amounts of the various cancer cells are placed in individual wells of a microtiter plate, and incubated with the potential antineoplastic compound of interest, for a sufficient period of time to allow for at least a 6-fold control growth, generally 1 to 5 days depending on cell origin. At the end of the incubation period, the cell lines are stained and assayed by a variety of means including, for example, proteins stains or a colorimeter for normal growth, growth inhibition or cytotoxicity. These assays measure a compound's ability to inhibit cell growth and a positive response of the compounds in these assays would be indicative of the therapeutic potential of these compounds. See, for example, the protocols and data presented in Laskin et al., (1979) Cancer Res 39:383-390 for 5-fluorouracil in mouse and human cells in culture.
(§2) A total of ten cell lines were used to evaluate the growth inhibitory potency of the various surfactants. In these studies, human, rat, mouse and bovine cells were used. A spectrum of different tumor cell types were used including those derived from keratinocytes (PAM 212), leukemias (HL-60, U-937 and K-562), an epitheloid carcinoma (HeLa) and melanoma (B-16). The B16 melanoma was used since this is a common cell type used to evaluate antimetastatic activity of test compounds. The effect of the surfactants on three fibroblast cell lines (C3H 10T1/2, NIH 3T3 and R6) were also evaluated for comparison to the tumor cell lines. The activity of the surfactants was also evaluated using pulmonary aortic endothelial cells for effectiveness as antiangiogenic agents.
(§3) PAM 212 cells are a mouse keratinocyte-derived tumor cell line. U-937 cells are a human histiocytic tumor cell line. HeLa cells are an epitheloid tumor cell line. Three murine fibroblast cells lines tested included the mouse fibroblast cell line, C3H 10T1/2, the rat fibroblast cell line R6, and the NIH 3T3 mouse fibroblast cell line. The human leukemia cell line HL-60 and the mouse melanoma B-16 cell were also tested. K-562 cells were from the American Type Culture Collection. All cells were grown in Dulbecco's modified Eagle's medium in a 37° C. incubator in an atmosphere of 5% CO2.
(§4) For growth inhibition assays, cells were seeded at low density (2.5×10^4 cells in 0.5 ml of culture medium) into 24-well tissue culture plates (Falcon Labware, Lincoln Park, N.J.). After 24 hours at 37° C., increasing concentrations (1 to 100 uM) of the surfactants were added to the cells in the culture plate. Control cultures were incubated in the absence of any surfactant. The cells were then incubated for 3-4 days to allow for growth. Cells from individual wells in the culture plate were then removed and duplicate samples taken for counting using a Coulter counter. To remove adherent cells the plates were treated with 0.25% trypsin/0.2% EDTA (GIBCO, Grand Island, N.Y.).

U-937 cells = test: Cell growth inhibition assay, U-937; format: cell-based; settings: Homo sapiens
Description: as §1, §2, §3, §4

B-16 cells = test: Cell growth inhibition assay, B-16 melanoma; format: cell-based, mouse
Description: as §1, §2, §3, §4

[1] = Critical micelle concentration (cmc); format: physicochemical
From the text: "Critical micelle concentration" or "cmc" refers to the point at which micelle formation begins.

R6 cells = test: Cell growth inhibition assay, R6; format: cell-based, rat; settings: Fibroblast, read-out: IC50 (uM conc. inhibiting growth of the cells by 50%)
Description: as §1, §2, §3, §4

C3H 10T1/2 cells = test: Cell growth inhibition assay, C3H 10T1/2; format: cell-based, mouse
Description: as §1, §2, §3, §4

CPA-5 cells = test: Cell growth inhibition assay, CPA-5 endothelial cells; format: cell-based, bovine; settings: Bos taurus, read-out: IC50 (uM conc. inhibiting growth of the cells by 50%)
From the text: as §2, §3, §4
The compounds were tested as inhibitors of growth in the bovine aortic endothelial cell line CPA-5 as taught in Example 2 in order to evaluate the possibility that they may be anti-angiogenesis agents. A hallmark of angiogenesis is the outgrowth of endothelial cells which are required in the formation of new blood vessels. This process is a critical factor in the vascularization of tumors. Inhibition of neovascularization limits the growth of tumors and would be an effective means of treating cancer. FIG. 3 illustrates that three of the compounds, 8-3S, 12-5B and 12-1B, had no activity against the CPA-5 cell line in the concentration range tested (IC50 =>100 uM), while only relatively high concentrations of 12-3S (IC50 =70 uM) were effective in inhibiting the growth of CPA-5 cells. As indicated above, with several exceptions, these compounds were also not very effective in inhibiting the growth of each of the other cell types.

HeLa cells = test: Cell growth inhibition assay, HeLa; format: cell-based; settings: read-out: IC50 (uM conc. inhibiting growth of the cells by 50%)
Description: as §1, §2, §3, §4

HL-60 cells = test: Cell growth inhibition assay, HL-60; format: cell-based, human
Description: as §1, §2, §3, §4

battery of cell lines = settings: 1988 report; cited from earlier work
K-562 cells = test: Cell growth inhibition assay, K-562; format: cell-based; settings: Homo sapiens
Description: as §1, §2, §3, §4

PAM 212 cells = test: Cell growth inhibition assay (surfactants, 3-4 days, Coulter counter), PAM 212; format: cell-based, mouse
Description: as §1, §2, §3, §4

liver = settings: rats fed ethionine; cited from earlier work
ten cell lines = test: Cell growth inhibition assays, panel of cell lines; format: cell-based, human, rat, mouse and bovine
From the text: as §2, §3, §4

[2] = Mus musculus, NIH3T3, read-out: IC50 (uM conc. inhibiting growth of the cells by 50%)
[3] = U-937, read-out: IC50 (uM conc. inhibiting growth of the cells by 50%)
[4] = Mus musculus, B16, read-out: IC50 (uM conc. inhibiting growth of the cells by 50%)
[5] = Mus musculus, C3H 10T1/2, read-out: IC50 (uM conc. inhibiting growth of the cells by 50%)
[6] = Homo sapiens, HL-60, read-out: IC50 (uM conc. inhibiting growth of the cells by 50%)
[7] = K562, read-out: IC50 (uM conc. inhibiting growth of the cells by 50%)
[8] = NIH3T3, NIH 3T3 mouse fibroblasts, 3-4 days, read-out: IC50 (uM conc. inhibiting growth of the cells by 50%)
[9] = U-937, U-937 human histiocytic tumor cells, 3-4 days, read-out: IC50 (uM conc. inhibiting growth of the cells by 50%)
[10] = B16, B-16 mouse melanoma cells, 3-4 days, read-out: IC50 (uM conc. inhibiting growth of the cells by 50%)
[11] = C3H 10T1/2 mouse fibroblasts, 3-4 days, read-out: IC50 (uM conc. inhibiting growth of the cells by 50%)
[12] = CPA-5 bovine aortic endothelial cells, 3-4 days
[13] = Homo sapiens, HeLa, HeLa cells, 3-4 days
[14] = HL-60 human leukemia cells, 3-4 days, read-out: IC50 (uM conc. inhibiting growth of the cells by 50%)
[15] = K562, K-562 leukemia cells, 3-4 days, read-out: IC50 (uM conc. inhibiting growth of the cells by 50%)
[16] = PAM212, PAM 212 mouse keratinocyte-derived tumor cells, 3-4 days, read-out: IC50 (uM conc. inhibiting growth of the cells by 50%)

Row | Compound | cmc [1] | IC50 (NIH 3T3 cells; [8]) [µM] | IC50 (U-937 cells; [9]) [µM] | IC50 (B-16 cells; [10]) [µM] | IC50 (R6 cells; R6 rat fibroblasts, 3-4 days) [µM] | IC50 (C3H 10T1/2 cells; [11]) [µM] | IC50 (CPA-5 cells; [12]) [µM] | IC50 (HeLa cells; [13]) [µM] | IC50 (HL-60 cells; [14]) [µM] | IC50 (K-562 cells; [15]) [µM] | IC50 (PAM 212 cells; [16]) [µM] | further results
1 | CCCCCCCCCCCC[N+](C)(C)CC(=O)[O-] [12-1B, N-(carboxymethyl)-N,N-dimethyl-1-dodecanaminium hydroxide inner salt] | 2,400 uM | – | – | – | – | – | – | – | – | – | – | IC50 (NIH 3T3 cells; [2]): > 100 µM; IC50 (U-937 cells; [3]): > 100 µM; IC50 (B-16 cells; [4]): 90 µM; IC50 (R6 cells; Rattus norvegicus): > 100 µM; IC50 (C3H 10T1/2 cells; [5]): > 100 µM; IC50 (CPA-5 cells): > 100 µM; IC50 (HeLa cells; Homo sapiens, HeLa): 39 µM; IC50 (HL-60 cells; [6]): 37 µM; inhibition and toxicity at the concentrations tested (battery of cell lines): inhibitory and toxic; IC50 (K-562 cells; [7]): 19 µM
2 | CCCCCCCCCCCCCCCC[N+](C)(C)CCCS(=O)(=O)[O-] [16-3S, N-hexadecyl-N,N-dimethyl-3-ammonio-1-propanesulfonate] | 28 µM | 40 | 6 | 54 | 14 | 3.3 | 17 | 2.2 | 1.6 | 15 | 7.5 | –
3 | CCCCCCCCCCCC[N+](C)(C)CCCCCC(=O)[O-] [12-5B, N-(5-carboxypentyl)-N,N-dimethyl-1-dodecanaminium hydroxide inner salt] | 5,100 uM | > 100 | > 100 | > 100 | 78 | > 100 | > 100 | 75 | 11 | > 100 | 60 | –
4 | CCCCCCCCCCCC[N+](C)(C)CCCS(=O)(=O)[O-] [12-3S, N-dodecyl-N,N-dimethyl-3-ammonio-1-propanesulfonate] | 2,200 uM | > 100 | > 100 | > 100 | 45 | 6.5 | 70 | 68 | 9.3 | > 100 | 3 | IC50 (HeLa cells; HeLa cells, 3-4 days): 58 µM; inhibition and toxicity at the concentrations tested (battery of cell lines): noninhibitory and nontoxic
5 | C[N+](C)(C)CC(=O)O [betaine] | – | – | – | – | – | – | – | – | – | – | – | prevention of chronic morphological changes in the liver, including cancer formation (liver): relatively effective in preventing chronic morphological changes in the liver, including cancer formation
6 | CCCCCCCCCCCCCCCC[N+](C)(C)CC(=O)[O-] [16-1B, N-(carboxymethyl)-N,N-dimethyl-1-hexadecanaminium hydroxide inner salt] | 14 µM | – | – | – | – | – | – | – | – | – | – | IC50 (NIH 3T3 cells; [2]): 60 µM; IC50 (U-937 cells; [3]): 23 µM; IC50 (B-16 cells; [4]): 52 µM; IC50 (R6 cells; Rattus norvegicus): 45 µM; IC50 (C3H 10T1/2 cells; [5]): 54 µM; IC50 (CPA-5 cells): 30 µM; IC50 (HeLa cells; Homo sapiens, HeLa): 16 µM; activity against all of the cell lines tested (ten cell lines; growth inhibition): effective against all of the cell lines; IC50 (HL-60 cells; [6]): 8 µM; IC50 (K-562 cells; [7]): 32 µM; IC50 (PAM 212 cells; Mus musculus, PAM212, read-out: IC50 (uM conc. inhibiting growth of the cells by 50%)): 50 µM
7 | CCCCCCCC[N+](C)(C)CCCS(=O)(=O)[O-] [8-3S, N-octyl-N, N-dimethyl-3-ammonio-1-propanesulfonate] | 200,000 uM | > 100 | > 100 | > 100 | 78 | > 100 | > 100 | > 100 | > 100 | > 100 | > 100 | pIC50 (ten cell lines; all / all other cell lines tested, read-out: IC50 over the cell lines tested (range or bound)): < 4.00
